From ChEMBL document CHEMBL5291721, “A preclinical secondary pharmacology resource illuminates target-adverse drug reaction associations of marketed drugs” (Nat Commun, 2023)

Experiments:
[1] = target: T1, Alpha-1A adrenergic receptor (Homo sapiens, UniProt P35348); type: functional, cell-based
T1 sequence (P35348 whole entry): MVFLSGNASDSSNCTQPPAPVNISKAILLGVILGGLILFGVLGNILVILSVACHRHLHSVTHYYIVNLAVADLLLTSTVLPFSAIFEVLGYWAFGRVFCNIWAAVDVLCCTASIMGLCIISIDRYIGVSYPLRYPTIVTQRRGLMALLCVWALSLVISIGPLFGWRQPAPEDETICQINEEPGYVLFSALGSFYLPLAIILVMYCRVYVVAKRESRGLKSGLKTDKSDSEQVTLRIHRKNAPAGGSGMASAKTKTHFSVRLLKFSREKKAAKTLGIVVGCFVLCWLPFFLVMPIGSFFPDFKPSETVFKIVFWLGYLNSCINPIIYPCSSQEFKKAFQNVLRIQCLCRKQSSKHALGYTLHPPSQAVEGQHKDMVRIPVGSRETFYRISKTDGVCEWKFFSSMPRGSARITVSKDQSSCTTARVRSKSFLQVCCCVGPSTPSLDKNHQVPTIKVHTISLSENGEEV

[2] = target: T2, Androgen receptor (Homo sapiens, UniProt P10275)
T2 sequence (P10275 whole entry): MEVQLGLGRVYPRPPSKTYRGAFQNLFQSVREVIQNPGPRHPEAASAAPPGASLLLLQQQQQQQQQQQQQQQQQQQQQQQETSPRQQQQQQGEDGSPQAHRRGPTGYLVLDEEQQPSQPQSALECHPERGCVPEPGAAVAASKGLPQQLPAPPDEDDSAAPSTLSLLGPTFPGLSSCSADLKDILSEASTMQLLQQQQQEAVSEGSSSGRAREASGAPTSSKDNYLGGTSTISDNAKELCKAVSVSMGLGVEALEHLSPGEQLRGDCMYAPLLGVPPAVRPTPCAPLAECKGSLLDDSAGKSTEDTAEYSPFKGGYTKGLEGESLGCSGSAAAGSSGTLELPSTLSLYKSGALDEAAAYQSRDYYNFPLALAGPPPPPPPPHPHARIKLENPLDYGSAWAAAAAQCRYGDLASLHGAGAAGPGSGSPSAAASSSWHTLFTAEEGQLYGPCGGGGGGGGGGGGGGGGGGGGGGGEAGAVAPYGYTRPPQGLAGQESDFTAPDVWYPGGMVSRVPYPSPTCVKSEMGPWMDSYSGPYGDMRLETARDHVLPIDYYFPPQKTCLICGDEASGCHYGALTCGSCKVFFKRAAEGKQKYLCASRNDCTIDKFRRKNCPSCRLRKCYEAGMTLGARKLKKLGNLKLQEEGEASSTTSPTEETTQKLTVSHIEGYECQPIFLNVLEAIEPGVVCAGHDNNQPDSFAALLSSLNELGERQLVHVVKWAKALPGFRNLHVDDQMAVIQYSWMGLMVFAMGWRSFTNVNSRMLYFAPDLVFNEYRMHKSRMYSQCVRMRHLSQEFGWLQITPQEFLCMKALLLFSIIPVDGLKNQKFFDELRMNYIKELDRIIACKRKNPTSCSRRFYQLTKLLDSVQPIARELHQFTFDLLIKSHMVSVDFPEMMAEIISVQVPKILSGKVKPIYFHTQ

[3] = target: Gamma-aminobutyric acid receptor subunit alpha-1/alpha-2/beta-2/gamma-2 (Homo sapiens, UniProt P14867+P18507+P47869+P47870); type: protein-complex assay
Sequence of Gamma-aminobutyric acid receptor subunit alpha-1/alpha-2/beta-2/gamma-2 (P14867 whole entry): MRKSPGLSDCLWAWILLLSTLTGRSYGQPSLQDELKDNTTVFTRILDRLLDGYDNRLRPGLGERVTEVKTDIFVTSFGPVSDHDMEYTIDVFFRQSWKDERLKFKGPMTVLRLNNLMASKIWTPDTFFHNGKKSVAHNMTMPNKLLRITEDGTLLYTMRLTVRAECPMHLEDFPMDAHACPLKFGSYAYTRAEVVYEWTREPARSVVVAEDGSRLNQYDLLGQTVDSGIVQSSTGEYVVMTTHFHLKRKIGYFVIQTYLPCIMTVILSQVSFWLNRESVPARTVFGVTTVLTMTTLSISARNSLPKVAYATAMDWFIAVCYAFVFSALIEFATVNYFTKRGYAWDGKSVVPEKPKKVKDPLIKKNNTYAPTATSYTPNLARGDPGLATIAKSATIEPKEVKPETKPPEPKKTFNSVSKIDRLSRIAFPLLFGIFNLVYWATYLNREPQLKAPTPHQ
Sequence of Gamma-aminobutyric acid receptor subunit alpha-1/alpha-2/beta-2/gamma-2 (P47870 whole entry): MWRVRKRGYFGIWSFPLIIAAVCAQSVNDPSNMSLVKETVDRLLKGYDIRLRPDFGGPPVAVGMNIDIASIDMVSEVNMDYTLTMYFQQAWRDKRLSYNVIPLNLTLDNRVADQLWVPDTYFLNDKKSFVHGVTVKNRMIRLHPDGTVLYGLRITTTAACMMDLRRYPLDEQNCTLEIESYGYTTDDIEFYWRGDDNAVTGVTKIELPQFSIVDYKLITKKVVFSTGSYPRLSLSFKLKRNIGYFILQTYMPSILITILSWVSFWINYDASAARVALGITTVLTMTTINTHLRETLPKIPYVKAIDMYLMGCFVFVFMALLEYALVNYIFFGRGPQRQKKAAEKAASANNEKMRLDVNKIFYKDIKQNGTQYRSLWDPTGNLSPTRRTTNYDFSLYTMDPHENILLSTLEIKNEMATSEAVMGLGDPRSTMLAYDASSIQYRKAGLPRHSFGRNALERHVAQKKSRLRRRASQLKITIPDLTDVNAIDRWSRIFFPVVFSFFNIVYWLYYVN
Sequence of Gamma-aminobutyric acid receptor subunit alpha-1/alpha-2/beta-2/gamma-2 (P18507 whole entry): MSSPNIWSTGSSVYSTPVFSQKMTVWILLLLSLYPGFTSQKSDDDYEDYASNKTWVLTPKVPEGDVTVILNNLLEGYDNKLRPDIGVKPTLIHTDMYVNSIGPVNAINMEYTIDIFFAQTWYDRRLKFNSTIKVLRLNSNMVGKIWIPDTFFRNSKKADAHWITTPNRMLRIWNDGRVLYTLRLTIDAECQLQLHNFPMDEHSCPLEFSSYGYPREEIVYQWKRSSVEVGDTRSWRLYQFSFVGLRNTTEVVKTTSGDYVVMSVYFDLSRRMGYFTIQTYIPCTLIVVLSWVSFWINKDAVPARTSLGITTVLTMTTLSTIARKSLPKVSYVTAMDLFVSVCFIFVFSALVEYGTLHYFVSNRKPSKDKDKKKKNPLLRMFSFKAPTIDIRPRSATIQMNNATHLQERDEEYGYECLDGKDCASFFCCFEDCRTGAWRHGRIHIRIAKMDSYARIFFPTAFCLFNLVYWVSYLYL
Sequence of Gamma-aminobutyric acid receptor subunit alpha-1/alpha-2/beta-2/gamma-2 (P47869 whole entry): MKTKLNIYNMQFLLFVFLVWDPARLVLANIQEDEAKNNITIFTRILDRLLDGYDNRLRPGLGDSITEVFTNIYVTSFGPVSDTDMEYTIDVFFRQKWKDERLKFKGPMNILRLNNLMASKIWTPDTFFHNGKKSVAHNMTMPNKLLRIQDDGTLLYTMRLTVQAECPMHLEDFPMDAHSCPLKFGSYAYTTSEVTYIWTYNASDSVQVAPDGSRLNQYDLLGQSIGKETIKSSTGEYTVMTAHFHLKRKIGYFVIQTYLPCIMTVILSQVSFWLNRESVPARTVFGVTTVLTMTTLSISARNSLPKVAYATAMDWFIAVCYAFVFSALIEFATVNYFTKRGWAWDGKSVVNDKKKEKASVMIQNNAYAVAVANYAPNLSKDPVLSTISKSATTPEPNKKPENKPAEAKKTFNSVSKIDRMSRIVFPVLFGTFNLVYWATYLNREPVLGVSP

[4] = target: Gamma-aminobutyric acid receptor subunit alpha-1 (Rattus norvegicus, UniProt P62813)
[5] = target: Histamine H3 receptor (Homo sapiens, UniProt Q9Y5N1)
Sequence of Histamine H3 receptor (Q9Y5N1 whole entry): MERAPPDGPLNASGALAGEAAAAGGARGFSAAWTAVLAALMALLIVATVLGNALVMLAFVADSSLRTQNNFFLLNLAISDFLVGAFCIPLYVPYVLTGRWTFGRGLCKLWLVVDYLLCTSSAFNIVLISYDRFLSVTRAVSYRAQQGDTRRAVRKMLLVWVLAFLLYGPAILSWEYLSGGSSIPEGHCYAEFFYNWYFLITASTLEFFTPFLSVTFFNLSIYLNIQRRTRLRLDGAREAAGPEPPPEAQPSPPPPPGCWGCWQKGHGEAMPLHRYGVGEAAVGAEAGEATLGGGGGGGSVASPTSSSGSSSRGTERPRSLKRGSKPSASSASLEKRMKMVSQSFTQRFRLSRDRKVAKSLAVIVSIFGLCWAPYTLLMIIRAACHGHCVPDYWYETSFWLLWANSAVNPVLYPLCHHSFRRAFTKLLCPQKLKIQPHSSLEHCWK

[6] = target: T3, 5-hydroxytryptamine receptor 1A (Homo sapiens, UniProt P08908)
T3 sequence (P08908 whole entry): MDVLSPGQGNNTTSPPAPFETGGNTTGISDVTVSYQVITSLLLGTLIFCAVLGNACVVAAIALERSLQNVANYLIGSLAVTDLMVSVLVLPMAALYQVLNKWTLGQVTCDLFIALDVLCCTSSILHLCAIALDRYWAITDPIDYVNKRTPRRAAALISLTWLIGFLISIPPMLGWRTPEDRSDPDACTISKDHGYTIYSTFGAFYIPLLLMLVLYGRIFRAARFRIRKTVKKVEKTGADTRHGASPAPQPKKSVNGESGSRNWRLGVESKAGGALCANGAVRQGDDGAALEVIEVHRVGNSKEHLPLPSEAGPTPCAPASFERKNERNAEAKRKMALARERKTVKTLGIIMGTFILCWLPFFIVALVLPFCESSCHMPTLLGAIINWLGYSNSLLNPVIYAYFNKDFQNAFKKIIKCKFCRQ

[7] = target: T4, Amine oxidase [flavin-containing] A (Homo sapiens, UniProt P21397); type: functional
T4 sequence (P21397 whole entry): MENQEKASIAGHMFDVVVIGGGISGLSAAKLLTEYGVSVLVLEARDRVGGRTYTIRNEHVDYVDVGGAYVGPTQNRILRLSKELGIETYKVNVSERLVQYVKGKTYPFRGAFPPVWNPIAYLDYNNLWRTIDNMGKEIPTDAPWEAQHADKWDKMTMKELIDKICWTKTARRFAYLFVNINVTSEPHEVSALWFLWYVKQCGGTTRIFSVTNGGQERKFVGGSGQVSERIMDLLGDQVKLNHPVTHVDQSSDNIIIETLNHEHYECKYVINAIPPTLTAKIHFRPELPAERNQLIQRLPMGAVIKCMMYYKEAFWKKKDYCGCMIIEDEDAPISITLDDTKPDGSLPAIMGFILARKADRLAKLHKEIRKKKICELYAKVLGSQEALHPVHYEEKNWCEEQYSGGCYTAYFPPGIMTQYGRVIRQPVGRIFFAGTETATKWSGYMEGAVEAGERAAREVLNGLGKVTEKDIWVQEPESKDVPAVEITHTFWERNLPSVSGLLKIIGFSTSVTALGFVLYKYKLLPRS

[8] = target: cGMP-inhibited 3',5'-cyclic phosphodiesterase 3A (Homo sapiens, UniProt Q14432); type: functional
[9] = target: 3',5'-cyclic-AMP phosphodiesterase 4A (Homo sapiens, UniProt P27815); type: functional
[10] = target: Prostaglandin G/H synthase 1 (Homo sapiens, UniProt P23219); type: functional
Sequence of Prostaglandin G/H synthase 1 (P23219 whole entry): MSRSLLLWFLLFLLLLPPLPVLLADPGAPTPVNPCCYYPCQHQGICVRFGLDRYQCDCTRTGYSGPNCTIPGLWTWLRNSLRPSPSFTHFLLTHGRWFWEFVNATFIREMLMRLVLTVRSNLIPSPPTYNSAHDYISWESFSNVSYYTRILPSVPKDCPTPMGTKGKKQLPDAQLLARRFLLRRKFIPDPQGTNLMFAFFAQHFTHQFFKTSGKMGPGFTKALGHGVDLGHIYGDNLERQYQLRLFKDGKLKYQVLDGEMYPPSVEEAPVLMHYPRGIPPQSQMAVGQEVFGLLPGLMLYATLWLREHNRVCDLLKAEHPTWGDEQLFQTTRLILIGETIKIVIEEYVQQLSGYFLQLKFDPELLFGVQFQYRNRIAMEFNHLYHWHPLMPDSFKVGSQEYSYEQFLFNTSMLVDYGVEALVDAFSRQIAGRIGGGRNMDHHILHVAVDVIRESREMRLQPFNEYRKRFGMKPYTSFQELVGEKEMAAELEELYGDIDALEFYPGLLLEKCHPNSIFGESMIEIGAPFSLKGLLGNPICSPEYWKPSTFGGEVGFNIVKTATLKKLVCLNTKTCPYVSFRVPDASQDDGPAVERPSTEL

[11] = target: Sodium-dependent noradrenaline transporter (Homo sapiens, UniProt P23975)
Sequence of Sodium-dependent noradrenaline transporter (P23975 whole entry): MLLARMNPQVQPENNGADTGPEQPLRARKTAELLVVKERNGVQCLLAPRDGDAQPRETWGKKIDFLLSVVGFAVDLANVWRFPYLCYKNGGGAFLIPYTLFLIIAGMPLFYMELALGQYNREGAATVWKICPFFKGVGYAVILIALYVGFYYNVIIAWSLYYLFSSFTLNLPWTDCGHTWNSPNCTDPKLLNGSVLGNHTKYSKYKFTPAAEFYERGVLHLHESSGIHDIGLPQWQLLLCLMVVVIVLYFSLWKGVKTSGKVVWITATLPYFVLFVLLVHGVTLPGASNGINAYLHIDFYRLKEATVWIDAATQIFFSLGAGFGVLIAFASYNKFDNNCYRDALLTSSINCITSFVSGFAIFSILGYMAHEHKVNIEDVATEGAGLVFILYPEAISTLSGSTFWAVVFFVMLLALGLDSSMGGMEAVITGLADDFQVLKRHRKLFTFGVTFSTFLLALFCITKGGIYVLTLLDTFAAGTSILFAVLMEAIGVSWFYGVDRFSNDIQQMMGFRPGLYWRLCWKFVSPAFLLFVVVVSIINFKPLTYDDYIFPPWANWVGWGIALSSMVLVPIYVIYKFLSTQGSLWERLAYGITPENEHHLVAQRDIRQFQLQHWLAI

[12] = target: Sodium-dependent dopamine transporter (Homo sapiens, UniProt Q01959)
Sequence of Sodium-dependent dopamine transporter (Q01959 whole entry): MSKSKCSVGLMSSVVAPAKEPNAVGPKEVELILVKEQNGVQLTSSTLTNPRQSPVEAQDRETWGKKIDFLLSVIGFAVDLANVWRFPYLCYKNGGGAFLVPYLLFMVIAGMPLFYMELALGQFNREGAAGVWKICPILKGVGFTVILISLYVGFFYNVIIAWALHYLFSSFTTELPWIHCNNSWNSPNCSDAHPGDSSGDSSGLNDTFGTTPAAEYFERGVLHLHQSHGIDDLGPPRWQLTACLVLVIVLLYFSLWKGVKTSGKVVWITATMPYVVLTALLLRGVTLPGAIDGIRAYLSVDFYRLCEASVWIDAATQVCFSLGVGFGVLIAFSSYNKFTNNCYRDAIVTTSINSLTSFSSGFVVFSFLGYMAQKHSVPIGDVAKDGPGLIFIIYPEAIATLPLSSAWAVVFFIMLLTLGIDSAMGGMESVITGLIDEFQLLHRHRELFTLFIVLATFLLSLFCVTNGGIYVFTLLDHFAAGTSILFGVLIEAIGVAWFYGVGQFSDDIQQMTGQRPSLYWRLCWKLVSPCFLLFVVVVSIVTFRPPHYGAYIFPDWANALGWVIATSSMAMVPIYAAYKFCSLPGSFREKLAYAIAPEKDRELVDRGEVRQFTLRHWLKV

[13] = target: Sodium-dependent serotonin transporter (Homo sapiens, UniProt P31645)
Sequence of Sodium-dependent serotonin transporter (P31645 whole entry): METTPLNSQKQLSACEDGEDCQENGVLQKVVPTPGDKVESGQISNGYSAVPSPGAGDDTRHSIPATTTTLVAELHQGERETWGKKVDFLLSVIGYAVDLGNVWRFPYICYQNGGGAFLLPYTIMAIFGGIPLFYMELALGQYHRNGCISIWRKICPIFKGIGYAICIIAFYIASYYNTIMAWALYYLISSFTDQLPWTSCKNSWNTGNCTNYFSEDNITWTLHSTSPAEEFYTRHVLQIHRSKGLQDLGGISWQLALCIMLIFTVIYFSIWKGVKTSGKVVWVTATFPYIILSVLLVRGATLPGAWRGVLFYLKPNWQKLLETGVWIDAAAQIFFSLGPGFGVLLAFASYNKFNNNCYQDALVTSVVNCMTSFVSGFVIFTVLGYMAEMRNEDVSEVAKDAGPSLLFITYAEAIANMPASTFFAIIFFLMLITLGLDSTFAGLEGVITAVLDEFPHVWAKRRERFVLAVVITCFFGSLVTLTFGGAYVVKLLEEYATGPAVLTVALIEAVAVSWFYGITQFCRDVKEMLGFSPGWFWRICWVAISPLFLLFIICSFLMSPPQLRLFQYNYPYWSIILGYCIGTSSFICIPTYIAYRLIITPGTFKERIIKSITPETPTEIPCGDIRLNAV
Note: assay procedure not described here.

`CCN1CCCC1CNC(=O)c1cc(S(N)(=O)=O)ccc1OC` (centres undefined) [SULPIRIDE] was tested, and the AC50 [1] was over 30 µM, the AC50 [2] was over 30 µM and the AC50 [3] was over 30 µM. For the same compound, the AC50 [4] was over 30 µM, the AC50 [5] was over 30 µM and the AC50 [6] was over 30 µM. The AC50 [7] was over 30 µM, the AC50 [8] was over 30 µM and the AC50 [9] was over 30 µM. For the same compound, the AC50 [10] was 15.8 µM, the AC50 [11] was over 30 µM and the AC50 [12] was over 30 µM.
With `N[C@H]1C(O)O[C@H](CO)[C@@H](O)[C@@H]1O` (some centres undefined) [GLUCOSAMINE] the AC50 [1] was over 30 µM, the AC50 [2] was over 30 µM and the AC50 [3] was over 30 µM. It also gave an AC50 [5] of over 30 µM, an AC50 [6] of over 30 µM and an AC50 [7] of over 30 µM. For the same compound, the AC50 [8] was over 30 µM, the AC50 [9] was over 30 µM and the AC50 [10] was over 30 µM. The AC50 [11] was over 30 µM, the AC50 [12] was over 30 µM and the AC50 [13] was over 30 µM.
With `CCOc1ccccc1C(N)=O` [ETHENZAMIDE] the AC50 [1] was over 30 µM, the AC50 [2] was over 30 µM and the AC50 [3] was over 30 µM. For the same compound, the AC50 [5] was over 30 µM, the AC50 [6] was over 30 µM and the AC50 [7] was over 30 µM. The AC50 [8] was over 30 µM, the AC50 [9] was over 30 µM and the AC50 [10] was over 30 µM. It also gave an AC50 [11] of over 30 µM, an AC50 [12] of over 30 µM and an AC50 [13] of over 30 µM.
For `CCOC(=O)/C=C1\SC(N2CCCCC2)C(=O)N1C` (centres undefined) [ETOZOLIN], the AC50 [1] was over 30 µM, the AC50 [2] was over 30 µM and the AC50 [3] was over 30 µM. It also gave an AC50 [5] of over 30 µM, an AC50 [6] of over 30 µM and an AC50 [7] of over 30 µM. The AC50 [8] was over 30 µM, the AC50 [9] was over 30 µM and the AC50 [10] was over 30 µM. The AC50 [11] was over 30 µM, the AC50 [12] was over 30 µM and the AC50 [13] was over 30 µM.
With `CC(=O)[C@@]1(O)CC[C@H]2[C@@H]3C=C(C)C4=CC(=O)CC[C@]4(C)[C@H]3CC[C@@]21C` the AC50 [1] was over 30 µM, the AC50 [2] was 0.0119 µM and the AC50 [3] was over 30 µM. It also gave an AC50 [5] of over 30 µM, an AC50 [6] of over 30 µM and an AC50 [7] of over 30 µM. For the same compound, the AC50 [8] was over 30 µM, the AC50 [9] was over 30 µM and the AC50 [10] was over 30 µM. The AC50 [11] was over 30 µM, the AC50 [12] was over 30 µM and the AC50 [13] was over 30 µM.
In the case of `CCCCOC(=O)C(=O)[C@H]1[C@H](C)C[C@H]2[C@@H]3C[C@H](F)C4=CC(=O)C=C[C@]4(C)[C@H]3[C@@H](O)C[C@@]21C` [FLUOCORTIN BUTYL], the AC50 [1] is reported as over 30 µM, the AC50 [2] is reported as 0.316 µM and the AC50 [3] is reported as over 30 µM. For the same compound, the AC50 [5] was over 30 µM, the AC50 [6] was over 30 µM and the AC50 [7] was over 30 µM. For the same compound, the AC50 [8] was over 30 µM, the AC50 [9] was over 30 µM and the AC50 [10] was over 30 µM. The AC50 [11] was 29.5 µM, the AC50 [12] was 27.2 µM and the AC50 [13] was over 30 µM.
For `CC(C)(C)N1CCC(c2ccccc2)(c2ccccc2)CC1` [BUDIPINE], the AC50 [1] was over 30 µM, the AC50 [2] was over 30 µM and the AC50 [3] was over 30 µM. For the same compound, the AC50 [5] was over 30 µM, the AC50 [6] was over 30 µM and the AC50 [7] was over 30 µM. The AC50 [8] was over 30 µM, the AC50 [9] was over 30 µM and the AC50 [10] was over 30 µM. The AC50 [11] was over 30 µM, the AC50 [12] was over 30 µM and the AC50 [13] was over 30 µM.
